Data from patent US8754118B2, “Atropisomer of pyrrole derivative” (Daiichi Sankyo Company, Limited, priority 2007, dated 2014).
pIC50: −log10 of the molar value.

Experiments:
[1] = molecular target: T1, human mineralocorticoid receptor (hMR) ligand-binding domain (GAL4-hMR receptor) (Homo sapiens, UniProt P08235); test: GAL4-hMR luciferase reporter assay in HEK293 cells in the presence of 1 nM aldosterone (mineralocorticoid receptor antagonistic activity); assay type: cell-based; conditions: for pIC50: concentration giving Imax/2, HEK293, 1 nM aldosterone present, overnight incubation, read-out: ICmax50; for Imax: maximum value from the graph of relative luciferase activity, DMSO control = 0%, 1 nM aldosterone control = 100%
T1 construct: expressed in transfected cells; host or cells: HEK293
T1 sequence (P08235 726-964 limits assumed): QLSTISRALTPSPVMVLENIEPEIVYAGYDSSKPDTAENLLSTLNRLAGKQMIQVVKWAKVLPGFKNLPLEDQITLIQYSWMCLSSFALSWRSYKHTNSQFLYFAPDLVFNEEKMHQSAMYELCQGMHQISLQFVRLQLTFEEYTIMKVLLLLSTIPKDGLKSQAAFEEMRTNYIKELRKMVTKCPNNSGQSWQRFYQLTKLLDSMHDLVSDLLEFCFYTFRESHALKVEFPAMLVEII
Excerpt: A plasmid pM-hMR-LBD which is obtained by ligation of a ligand-binding domain (LBD, corresponding to a region of about 308 amino acids at the carboxy terminus) of human mineralocorticoid receptor (hMR, NM_000901) to a DNA-binding domain (corresponding to a region of 147 amino acids at the amino terminus) of a yeast transcription factor GAL4 and expresses GAL4-hMR receptor was constructed. Using a reporter plasmid which has a sequence binding to the DNA-binding domain of GAL4 (UAS sequence) and contains a luciferase gene (such as pFR-Luc, a plasmid available from Stratagene Cloning Systems), a reporter assay was performed.
The previously obtained plasmid pM-hMR-LBD and the reporter plasmid were transfected into a human fetus-derived renal cell line HEK293 by the lipofection method. On the following day, the cells were treated with trypsin and collected. A white 96-well plate (manufactured by Costar, Inc.) was prepared, and the cells were dispensed into each well in an amount of 95 μL using a DMEM medium containing 5% FBS (fetal bovine serum) which had been treated with activated charcoal.
As for each test compound, solutions obtained by dissolving the test compound in dimethyl sulfoxide at predetermined concentrations were used, and the solutions were appropriately diluted with medium and added to the cells in the white 96-well plate to give a final concentration of 0.1%. When the test compound was added, 1 nM aldosterone was allowed to be present. A well group to which dimethyl sulfoxide was added was assigned Control 1 group; and a well group to which 1 nM aldosterone was added was assigned Control 2 group. After the addition, the plate was incubated overnight.
On the following day, the medium was removed, and a luciferase substrate (Wako Pure Chemical Industries, Ltd.) was prepared according to the package insert and added to each well in an amount of 50 μL, and then, the plate was stirred for about 30 minutes. The luminescence intensity of each well was measured using Analyst (manufactured by Molecular Devices Corporation) and taken as the luciferase activity. The luciferase activity value of Control 1 group was taken as 0%, the luciferase activity value of Control 2 group was taken as 100%, and relative luciferase activity values for the respective doses of the test compound in the test compound addition group were plotted to create a graph. From the graph, the maximum value was calculated as Imax (%), and the concentration of the test compound showing the value of Imax/2 was calculated as ICmax50 (M). In Table 1, ICmax50 values are shown.

[2] = Plasma pharmacokinetics after oral administration to cynomolgus monkeys (LC-MS/MS); assay type: in vivo; conditions: male cynomolgus monkey, 3 mg/kg to the stomach in 0.5% MC, fasted; for Cmax: po, read-out: Cmax: Maximum concentration
Experimental: Cynomolgus monkeys (male) were used, and the monkeys were fasted from one day before the test compound was administered. The administration sample was prepared by adding a 0.5% MC (methyl cellulose) solution to the test compound such that the dose was 3 mg/2 mL/kg. Each administration sample was administered to the stomach of the cynomolgus monkey using a tube. After the sample was administered, about 5 mL of water was administered. Each administration sample was administered to three cynomolgus monkeys in one group.
As for blood collection, about 1 mL of blood was collected from the femoral vein before administration, and […] 1, 2, 4, 6, 8, 24 and 48 hours after administration using an injection syringe treated with heparin. The collected blood was centrifuged (15,000×g, […], 4° C.) to obtain plasma. The obtained plasma was stored in a freezer (−20° C.) until pretreatment.
Preparation of Standard Solution and Internal Standard (IS) Solution: Each test compound was dissolved in acetonitrile, whereby a 1 mg/mL solution of each test compound was prepared. A standard solution was prepared by diluting each compound solution with acetonitrile. Further, sodium warfarin (Wako Pure Chemical Industries, Ltd.) was dissolved in acetonitrile to prepare a 500 ng/mL IS solution. Pretreatment of Plasma Sample: 50 μL of the plasma sample was taken out and 50 μL of acetonitrile was added thereto. For a calibration curve, 50 μL of each standard solution (acetonitrile solution) was added to 50 μL of the blank plasma. To all the samples, 150 μL of the IS acetonitrile solution was added, and the mixture was stirred, and then centrifuged (about 1,800×g, 30 min, 4° C.). After filtration was performed with Sirocco Protein Precipitation Plate (Waters Corporation), the filtrate was appropriately diluted with a mobile phase to prepare an LC-MS/MS analysis sample. Determination of Test Compound: The plasma concentration of each test compound was analyzed by the LC-MS/MS method. [HPLC Analysis Conditions]
Analysis: A pharmacokinetics parameter was calculated from the plasma concentration of each agent using WinNonlin Professional (Ver. 4.0.1, Pharsight Corporation). Incidentally, Noncompartment model was used as a model for calculation of the parameter.

SMILES	pIC50 [1]	Imax [1] [%]	AUC: Area under the plasma concentration versus time curve (0-48 hr.) [2] [ng·h/mL]	Cmax [2] [ng/mL]
Cc1c(C(=O)Nc2ccc(S(C)(=O)=O)cc2)cn(CCO)c1-c1ccccc1C(F)(F)F (racemic) [Example 3, (+/−)-1-(2-hydroxyethyl)-4-methyl-N-[4-(methylsulfonyl)phenyl]-5-[2-(trifluoromethyl)phenyl]-1H-pyrrole-3-carboxamide]		105	7667	380
COc1ccc(-c2c(C)c(C(=O)Nc3ccc(S(C)(=O)=O)cc3)cn2CCO)c(C(F)(F)F)c1 (racemic) [Example 5, (+/−)-1-(2-hydroxyethyl)-5-[4-methoxy-2-(trifluoromethyl)phenyl]-4-methyl-N-[4-(methylsulfonyl)phenyl]-1H-pyrrole-3-carboxamide]	8.28	97	33	2
Cc1c(C(=O)Nc2ccc(S(C)(=O)=O)cc2)cn(C)c1-c1ccccc1C(F)(F)F (single isomer, unassigned) [Isomer A, (−)-1,4-dimethyl-N-[4-(methylsulfonyl)phenyl]-5-[2-(trifluoromethyl)phenyl]-1H-pyrrole-3-carboxamide]	< 6.00			
Cc1c(C(=O)Nc2ccc(S(C)(=O)=O)cc2)cn(C)c1-c1ccccc1C(F)(F)F (single isomer, unassigned) [Isomer B, (+)-1,4-dimethyl-N-[4-(methylsulfonyl)phenyl]-5-[2-(trifluoromethyl)phenyl]-1H-pyrrole-3-carboxamide]	8.59	123	3446	184
Cc1c(C(=O)Nc2ccc(S(C)(=O)=O)cc2)cn(CCO)c1-c1ccccc1C(F)(F)F (single isomer, unassigned) [Isomer C, (+)-1-(2-hydroxyethyl)-4-methyl-N-[4-(methylsulfonyl)phenyl]-5-[2-(trifluoromethyl)phenyl]-1H-pyrrole-3-carboxamide]	< 6.00			
COc1ccc(-c2c(C)c(C(=O)Nc3ccc(S(C)(=O)=O)cc3)cn2CCO)c(C(F)(F)F)c1 (single isomer, unassigned) [Isomer E, (−)-1-(2-hydroxyethyl)-5-[4-methoxy-2-(trifluoromethyl)phenyl]-4-methyl-N-[4-(methylsulfonyl)phenyl]-1H-pyrrole-3-carboxamide]	8.74	115	7187	681

The next lines start with the values.

pIC50 [1]	Imax [1] [%]	AUC: Area under the plasma concentration versus time curve (0-48 hr.) [2] [ng·h/mL]	Cmax [2] [ng/mL]	SMILES
7.89	95	860	42	Cc1c(C(=O)Nc2ccc(S(C)(=O)=O)cc2)cn(C)c1-c1ccccc1C(F)(F)F (racemic) [Example 1, (+/−)-1,4-dimethyl-N-[4-(methylsulfonyl)phenyl]-5-[2-(trifluoromethyl)phenyl]-1H-pyrrole-3-carboxamide]
8.62	99	26390	1330	Cc1c(C(=O)Nc2ccc(S(C)(=O)=O)cc2)cn(CCO)c1-c1ccccc1C(F)(F)F (single isomer, unassigned) [Isomer D, (−)-1-(2-hydroxyethyl)-4-methyl-N-[4-(methylsulfonyl)phenyl]-5-[2-(trifluoromethyl)phenyl]-1H-pyrrole-3-carboxamide]
< 6.00				COc1ccc(-c2c(C)c(C(=O)Nc3ccc(S(C)(=O)=O)cc3)cn2CCO)c(C(F)(F)F)c1 (single isomer, unassigned) [Isomer F, (+)-1-(2-hydroxyethyl)-5-[4-methoxy-2-(trifluoromethyl)phenyl]-4-methyl-N-[4-(methylsulfonyl)phenyl]-1H-pyrrole-3-carboxamide]
